What all share (test): cAMP functional assay (HTRF) in HEK293 cells in presence of 0.1% casein
Type in all cases: cell-based

In assay [1] the target is T1, human GLP-1 receptor (GLP-1R) (Homo sapiens, UniProt P43220).
T1 construct: expressed in transfected cells; host or cells: HEK293
Particulars: HEK293 cells expressing human GLP-1R, geometric mean, read-out: hGLP1R cAMP Rel EC50 nM (SEM, n).

Assay [2] has as its target T2, human glucagon receptor (GcgR) (Homo sapiens, UniProt P47871).
T2 construct: expressed in transfected cells; host or cells: HEK293
The following applies: HEK293 cells expressing human GcgR, geometric mean, read-out: hGcgR cAMP Rel EC50 nM (SEM, n).

In assay [3] the target is T3, human glucose-dependent insulinotropic peptide receptor (GIPR) (Homo sapiens, UniProt P48546).
T3 construct: expressed in transfected cells; host or cells: HEK293
T3 sequence (P48546 22-466): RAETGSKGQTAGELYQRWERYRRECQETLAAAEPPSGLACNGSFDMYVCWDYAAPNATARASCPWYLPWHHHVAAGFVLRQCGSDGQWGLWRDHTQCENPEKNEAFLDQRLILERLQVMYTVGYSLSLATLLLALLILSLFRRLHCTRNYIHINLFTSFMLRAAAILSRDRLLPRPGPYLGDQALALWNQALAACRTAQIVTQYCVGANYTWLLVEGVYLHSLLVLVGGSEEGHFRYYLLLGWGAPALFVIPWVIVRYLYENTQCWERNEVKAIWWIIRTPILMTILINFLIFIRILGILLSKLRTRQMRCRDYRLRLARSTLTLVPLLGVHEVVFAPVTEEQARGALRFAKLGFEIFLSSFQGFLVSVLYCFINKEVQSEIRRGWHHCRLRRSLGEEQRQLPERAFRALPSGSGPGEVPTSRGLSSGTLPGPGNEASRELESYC
The following applies: HEK293 cells expressing human GIPR, geometric mean, read-out: hGIPR cAMP Rel EC50 nM (SEM, n).

*1 amine or outer side, *2 acyl side, *3 side chain or, on linkers, in order; H or OH if unused. Where a SMILES comes first, the peptide text is derived from it. Side-chain parts run from the residue outwards. [ ]: non-standard residue; d: D form. The star is where a group is joined. C20 diacid = O=C(O)CCCCCCCCCCCCCCCCCCC(=O)*; γGlu = O=C(O)[C@H](CCC(=O)[*:2])N[*:1]; αMeF = C[C@](N)(Cc1ccccc1)C(=O)O; 4Pal = N[C@@H](Cc1ccncc1)C(=O)O; αMeL = CC(C)C[C@](C)(N)C(=O)O; AEEA = NCCOCCOCC(=O)O; Aib = CC(C)(N)C(=O)O

This passage reports EC50 results from patent publication US12723063B2, “GIPR-agonist compounds” (Eli Lilly and Company, priority 2019, dated 2026).

T1 sequence (P43220 24-463): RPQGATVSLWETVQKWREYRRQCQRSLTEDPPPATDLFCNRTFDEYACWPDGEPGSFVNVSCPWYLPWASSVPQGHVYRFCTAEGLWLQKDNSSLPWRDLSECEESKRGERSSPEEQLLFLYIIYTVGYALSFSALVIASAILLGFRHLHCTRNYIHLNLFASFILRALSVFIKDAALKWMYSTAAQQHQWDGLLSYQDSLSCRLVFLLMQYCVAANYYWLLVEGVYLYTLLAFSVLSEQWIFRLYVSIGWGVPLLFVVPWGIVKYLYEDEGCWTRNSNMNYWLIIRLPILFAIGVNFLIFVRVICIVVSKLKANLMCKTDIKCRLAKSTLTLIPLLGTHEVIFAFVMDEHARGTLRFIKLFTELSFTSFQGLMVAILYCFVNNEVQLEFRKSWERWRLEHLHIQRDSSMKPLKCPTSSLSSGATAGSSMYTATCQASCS
T2 sequence (P47871 26-477): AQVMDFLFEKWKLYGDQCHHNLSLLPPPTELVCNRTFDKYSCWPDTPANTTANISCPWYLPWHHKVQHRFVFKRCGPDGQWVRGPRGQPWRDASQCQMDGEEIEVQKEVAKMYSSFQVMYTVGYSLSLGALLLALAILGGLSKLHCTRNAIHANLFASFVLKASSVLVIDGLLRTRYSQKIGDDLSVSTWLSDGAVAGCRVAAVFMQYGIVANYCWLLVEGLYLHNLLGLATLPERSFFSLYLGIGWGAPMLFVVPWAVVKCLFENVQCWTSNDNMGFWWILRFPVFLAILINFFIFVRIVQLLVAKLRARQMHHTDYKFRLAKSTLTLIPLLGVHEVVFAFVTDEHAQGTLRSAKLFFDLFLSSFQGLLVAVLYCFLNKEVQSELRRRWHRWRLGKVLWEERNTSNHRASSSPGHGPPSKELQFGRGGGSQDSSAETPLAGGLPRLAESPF

A word on the EC50: it is the concentration at which the effect is half-maximal. With `CC[C@H](C)[C@H](NC(=O)[C@H](CO)NC(=O)[C@H](Cc1ccc(O)cc1)NC(=O)[C@H](CC(=O)O)NC(=O)[C@H](CO)NC(=O)[C@@H](NC(=O)[C@](C)(Cc1ccccc1)NC(=O)[C@@H](NC(=O)CNC(=O)[C@H](CCC(=O)O)NC(=O)C(C)(C)NC(=O)[C@@H](N)Cc1ccc(O)cc1)[C@@H](C)O)[C@@H](C)CC)C(=O)N[C@@](C)(CC(C)C)C(=O)N[C@@H](CC(C)C)C(=O)N[C@@H](CC(=O)O)C(=O)N[C@@H](CCCCN)C(=O)N[C@@H](CCCCNC(=O)COCCOCCNC(=O)COCCOCCNC(=O)CC[C@H](NC(=O)CCCCCCCCCCCCCCCCCCC(=O)O)C(=O)O)C(=O)N[C@@H](Cc1c[nH]cn1)C(=O)N[C@@H](CCC(N)=O)C(=O)NC(C)(C)C(=O)N[C@@H](CCC(=O)O)C(=O)N[C@@H](Cc1ccccc1)C(=O)N[C@H](C(=O)N[C@@H](CCC(=O)O)C(=O)N[C@@H](Cc1ccncc1)C(=O)N[C@@H](CC(C)C)C(=O)N[C@@H](CC(C)C)C(=O)N[C@@H](C)C(=O)N[C@@H](CCC(N)=O)C(=O)NCC(=O)N1CCC[C@H]1C(=O)N[C@@H](CO)C(=O)N[C@@H](CO)C(=O)NCC(=O)N[C@@H](C)C(=O)N1CCC[C@H]1C(=O)N1CCC[C@H]1C(=O)N1CCC[C@H]1C(=O)N[C@@H](CO)C(N)=O)C(C)C` [Example 60] (H-Y[Aib]EGT[αMeF]ISDYSI[αMeL]LDKK([AEEA-AEEA-γGlu-C20 diacid])HQ[Aib]EFVE[4Pal]LLAQGPSSGAPPPS-NH2), the EC50 in assay [1] is 71 nM; in assay [2], greater than 5000 nM; in assay [3], 0.0369 nM.

Take `CC[C@H](C)[C@H](NC(=O)[C@H](Cc1ccccc1)NC(=O)[C@@H](NC(=O)CNC(=O)[C@H](CCC(=O)O)NC(=O)C(C)(C)NC(=O)[C@@H](N)Cc1ccc(O)cc1)[C@@H](C)O)C(=O)N[C@@H](CO)C(=O)N[C@@H](CC(=O)O)C(=O)N[C@@H](Cc1ccc(O)cc1)C(=O)N[C@@H](CO)C(=O)N[C@H](C(=O)N[C@@](C)(CC(C)C)C(=O)N[C@@H](CC(C)C)C(=O)N[C@@H](CC(=O)O)C(=O)N[C@@H](CCCCN)C(=O)N[C@@H](CCCCNC(=O)COCCOCCNC(=O)COCCOCCNC(=O)CC[C@H](NC(=O)CCCCCCCCCCCCCCCCCCC(=O)O)C(=O)O)C(=O)N[C@@H](Cc1c[nH]cn1)C(=O)N[C@@H](CCC(N)=O)C(=O)NC(C)(C)C(=O)N[C@@H](CC(=O)O)C(=O)N[C@@H](Cc1ccccc1)C(=O)N[C@H](C(=O)N[C@@H](CCC(=O)O)C(=O)N[C@@H](Cc1ccncc1)C(=O)N[C@@H](CC(C)C)C(=O)N[C@@H](CC(C)C)C(=O)N[C@@H](CCC(=O)O)C(=O)N[C@H](C(=O)NCC(=O)N1CCC[C@H]1C(=O)N[C@@H](CO)C(=O)N[C@@H](CO)C(=O)NCC(=O)N[C@@H](C)C(=O)N1CCC[C@H]1C(=O)N1CCC[C@H]1C(=O)N1CCC[C@H]1C(=O)N[C@@H](CO)C(N)=O)[C@@H](C)O)C(C)C)[C@@H](C)CC` [Example 45] (H-Y[Aib]EGTFISDYSI[αMeL]LDKK([AEEA-AEEA-γGlu-C20 diacid])HQ[Aib]DFVE[4Pal]LLETGPSSGAPPPS-NH2): the results for the EC50 in assay [1], in assay [2] and in assay [3] were greater than 5000 nM, 1690 nM and 0.049 nM, respectively.

With `CC[C@H](C)[C@H](NC(=O)[C@H](Cc1ccccc1)NC(=O)[C@@H](NC(=O)CNC(=O)[C@H](CCC(=O)O)NC(=O)C(C)(C)NC(=O)[C@@H](N)Cc1ccc(O)cc1)[C@@H](C)O)C(=O)N[C@@H](CO)C(=O)N[C@@H](CC(=O)O)C(=O)N[C@@H](Cc1ccc(O)cc1)C(=O)N[C@@H](CO)C(=O)N[C@H](C(=O)N[C@@](C)(CC(C)C)C(=O)N[C@@H](CC(C)C)C(=O)N[C@@H](CC(=O)O)C(=O)N[C@@H](CCCCN)C(=O)N[C@@H](CCCCNC(=O)COCCOCCNC(=O)COCCOCCNC(=O)CC[C@H](NC(=O)CCCCCCCCCCCCCCCCCCC(=O)O)C(=O)O)C(=O)N[C@@H](Cc1c[nH]cn1)C(=O)N[C@@H](CCC(N)=O)C(=O)NC(C)(C)C(=O)N[C@@H](CC(=O)O)C(=O)N[C@@H](Cc1ccccc1)C(=O)N[C@H](C(=O)N[C@@H](CCC(=O)O)C(=O)N[C@@H](Cc1ccc(O)cc1)C(=O)N[C@@H](CC(C)C)C(=O)N[C@@H](CC(C)C)C(=O)N[C@@H](CCC(=O)O)C(=O)N[C@@H](C)C(=O)NCC(=O)N1CCC[C@H]1C(=O)N[C@@H](CO)C(=O)N[C@@H](CO)C(=O)NCC(=O)N[C@@H](C)C(=O)N1CCC[C@H]1C(=O)N1CCC[C@H]1C(=O)N1CCC[C@H]1C(=O)N[C@@H](CO)C(N)=O)C(C)C)[C@@H](C)CC` [Example 68] (H-Y[Aib]EGTFISDYSI[αMeL]LDKK([AEEA-AEEA-γGlu-C20 diacid])HQ[Aib]DFVEYLLEAGPSSGAPPPS-NH2), the EC50 in assay [1] is greater than 5000 nM; in assay [2] it was 3030 nM; in assay [3], 0.0768 nM.
